Source: publication PMC6324689 (Oncotarget, 2018)

What was measured:
BCRP = molecular target: T1, BCRP (Homo sapiens, UniProt Q9UNQ0); test: MDCKII-BCRP monolayer bidirectional transport assay; format: in vitro ADME; conditions: MDCKII-BCRP cells; for Papp A→B at 120 min, 1 μM / Papp B→A at 120 min, 1 μM / Papp A→B at 120 min, 10 μM / Papp B→A at 120 min, 10 μM / Papp A→B at 120 min, 100 μM / Papp B→A at 120 min, 100 μM: human
T1 construct: host or cells: MDCKII
T1 sequence (Q9UNQ0 1-655): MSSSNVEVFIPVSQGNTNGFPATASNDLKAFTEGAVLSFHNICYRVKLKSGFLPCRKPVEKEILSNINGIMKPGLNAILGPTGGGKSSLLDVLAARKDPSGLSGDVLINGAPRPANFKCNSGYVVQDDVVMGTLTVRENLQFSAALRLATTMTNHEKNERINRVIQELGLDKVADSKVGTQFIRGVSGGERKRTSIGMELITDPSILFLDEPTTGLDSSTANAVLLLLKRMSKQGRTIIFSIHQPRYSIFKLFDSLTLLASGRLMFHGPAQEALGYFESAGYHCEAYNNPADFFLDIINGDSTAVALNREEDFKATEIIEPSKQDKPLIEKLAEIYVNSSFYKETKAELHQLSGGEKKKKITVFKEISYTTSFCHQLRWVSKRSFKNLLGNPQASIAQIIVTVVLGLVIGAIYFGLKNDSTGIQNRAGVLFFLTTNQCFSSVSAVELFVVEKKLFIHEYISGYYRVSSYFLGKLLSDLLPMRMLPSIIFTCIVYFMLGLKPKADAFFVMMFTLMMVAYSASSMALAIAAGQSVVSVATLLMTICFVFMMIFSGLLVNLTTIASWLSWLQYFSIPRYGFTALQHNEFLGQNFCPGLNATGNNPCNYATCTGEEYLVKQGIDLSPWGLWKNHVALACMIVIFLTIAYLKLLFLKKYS
Method: (§1) The monolayer assays were performed using parental and BCRP or MDR1 transfected MDCKII cell monolayers. […] Transfected and parental MDCKII cells were cultured on the inserts with 100 μL medium per well on the apical side and 25 mL in a single-well receiver tray for all 24 wells on the basolateral side, for 96 hours. Medium was changed 24 hours before the experiment. Permeability incubations were carried out in Hank’s Buffered Salt Solution (HBSS) at 37 ± 1°C. […] LY samples (100 μL from basolateral wells) were analyzed by measuring fluorescence with the following wavelengths: excitation – 430 nm, emission – 520 nm. Trans-epithelial electric resistance (TEER) of each well was measured to confirm the confluency of the monolayers after the experiments. The assays were conducted according to the actual SOLVO MDCKII-BCRP and MDCKII-MDR1 monolayer assay protocols (SOP). […] Cells were pre-incubated in assay buffer for 10 minutes to allow cells adjusting to the medium. Assay buffer containing the test articles (separately) at three concentrations (1 μM, 10 μM and 100 μM) was then added to the appropriate apical (100 μL) or basolateral (600 μL) chamber. […] The prazosin or digoxin efflux ratio was determined as a positive control for BCRP or MDR1 function, respectively. […] Bidirectional transport of the test articles in control, MDCKII-BCRP and MDCKII-MDR1 cells was determined by LC-MS/MS.

MDR1 (P-gp) = molecular target: T2, MDR1 (P-gp) (Homo sapiens, UniProt P08183); test: MDCKII-MDR1 monolayer bidirectional transport assay; format: in vitro ADME; conditions: human, MDCK-MDR1, MDCKII-MDR1 cells, 120 minutes
T2 construct: host or cells: MDCKII
T2 sequence (P08183 whole entry): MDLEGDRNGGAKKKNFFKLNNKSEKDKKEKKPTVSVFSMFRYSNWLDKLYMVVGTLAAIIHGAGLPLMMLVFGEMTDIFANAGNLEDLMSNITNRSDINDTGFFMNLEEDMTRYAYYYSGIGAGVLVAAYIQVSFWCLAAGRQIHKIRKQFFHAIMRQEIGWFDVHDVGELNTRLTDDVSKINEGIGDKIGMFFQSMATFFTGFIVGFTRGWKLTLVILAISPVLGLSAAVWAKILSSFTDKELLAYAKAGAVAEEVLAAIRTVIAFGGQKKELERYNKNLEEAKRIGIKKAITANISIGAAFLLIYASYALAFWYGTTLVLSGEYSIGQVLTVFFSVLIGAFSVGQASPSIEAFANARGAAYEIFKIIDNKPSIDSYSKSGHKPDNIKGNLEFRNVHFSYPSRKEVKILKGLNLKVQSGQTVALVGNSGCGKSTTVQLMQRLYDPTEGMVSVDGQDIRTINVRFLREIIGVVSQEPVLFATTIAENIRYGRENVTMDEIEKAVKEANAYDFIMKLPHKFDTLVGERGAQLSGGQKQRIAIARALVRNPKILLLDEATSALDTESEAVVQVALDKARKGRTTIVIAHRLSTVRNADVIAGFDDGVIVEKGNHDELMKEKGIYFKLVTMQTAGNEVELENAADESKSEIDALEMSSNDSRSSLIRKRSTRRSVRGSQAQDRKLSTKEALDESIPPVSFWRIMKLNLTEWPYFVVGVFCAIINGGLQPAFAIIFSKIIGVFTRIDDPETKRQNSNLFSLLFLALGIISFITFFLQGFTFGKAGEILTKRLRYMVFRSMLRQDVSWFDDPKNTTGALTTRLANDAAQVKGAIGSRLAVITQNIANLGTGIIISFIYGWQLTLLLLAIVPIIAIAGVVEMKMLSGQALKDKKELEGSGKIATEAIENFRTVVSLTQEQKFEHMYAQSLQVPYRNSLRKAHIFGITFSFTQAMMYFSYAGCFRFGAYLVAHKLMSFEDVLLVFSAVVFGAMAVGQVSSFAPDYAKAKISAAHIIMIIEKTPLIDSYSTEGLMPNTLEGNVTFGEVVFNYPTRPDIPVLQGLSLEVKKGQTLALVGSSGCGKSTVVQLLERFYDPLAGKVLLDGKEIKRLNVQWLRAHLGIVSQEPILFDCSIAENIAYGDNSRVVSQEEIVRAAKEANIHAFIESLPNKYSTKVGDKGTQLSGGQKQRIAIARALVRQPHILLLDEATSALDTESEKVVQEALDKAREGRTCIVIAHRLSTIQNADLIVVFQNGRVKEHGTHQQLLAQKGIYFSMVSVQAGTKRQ
Method: as §1

human MDR1 = molecular target: T3, human MDR1 (Homo sapiens, UniProt P08183); test: as above; format: in vitro ADME; conditions: MDCKII-MDR1 cells
T3 construct: host or cells: MDCKII
T3 sequence (P08183 whole entry): as above
Method: as §1

P-gp = tested on: P-gp; parameters: method as in PMID 24700236; conditions: cited from earlier work

NC(=O)c1cccc2cn(-c3ccc([C@@H]4CCCNC4)cc3)nc12 [Niraparib, 2-{4-[(3S)-piperidin-3-yl]phenyl}-2H-indazole-7-carboxamide]
Net ER (BCRP; 1 μM): 8.86 ± 3.28 | Net ER (BCRP; 10 μM): 24.73 ± 6.47 | Net ER (BCRP; 100 μM): 9.58 ± 1.70 | Papp A→B at 120 min, 1 μM (BCRP; 1 μM): 4.83 ± 2.29 ×10⁻⁶ cm/s | Papp B→A at 120 min, 1 μM (BCRP; 1 μM): 52.1 ± 3.09 ×10⁻⁶ cm/s | Papp A→B at 120 min, 10 μM (BCRP; 10 μM): 2.27 ± 0.7 ×10⁻⁶ cm/s | Papp B→A at 120 min, 10 μM (BCRP; 10 μM): 59.6 ± 3.65 ×10⁻⁶ cm/s | Papp A→B at 120 min, 100 μM (BCRP; 100 μM): 4.1 ± 0.13 ×10⁻⁶ cm/s | Papp B→A at 120 min, 100 μM (BCRP; 100 μM): 43.1 ± 2.62 ×10⁻⁶ cm/s | Papp A→B at 120 min, 1 μM (MDR1 (P-gp)): 5.33 ± 3.51 ×10⁻⁶ cm/s | Papp B→A at 120 min, 1 μM (MDR1 (P-gp)): 54.3 ± 3.03 ×10⁻⁶ cm/s | Papp A→B at 120 min, 10 μM (MDR1 (P-gp); 10 μM): 1.32 ± 0.29 ×10⁻⁶ cm/s | Papp B→A at 120 min, 10 μM (MDR1 (P-gp); 10 μM): 51.2 ± 1.43 ×10⁻⁶ cm/s | Papp A→B at 120 min, 100 μM (MDR1 (P-gp)): 0.1 ± 0.01 ×10⁻⁶ cm/s | Papp B→A at 120 min, 100 μM (MDR1 (P-gp)): 2.66 ± 0.14 ×10⁻⁶ cm/s | Net ER (human MDR1; 1 μM): 8.82 ± 4.94 | Net ER (human MDR1; 10 μM): 37.71 ± 8.95 | Net ER (human MDR1; 100 μM): 24.61 ± 5.32 | P-gp substrate (P-gp): substrates of P-gp

O=C(c1cc(Cc2n[nH]c(=O)c3ccccc23)ccc1F)N1CCN(C(=O)C2CC2)CC1 [Olaparib]
Net ER (BCRP; 1 μM): 32.97 ± 9.58 | Net ER (BCRP; 10 μM): 71.22 ± 14.97 | Net ER (BCRP; 100 μM): 50.54 ± 13.65 | Papp A→B at 120 min, 1 μM (BCRP; 1 μM): 1.12 ± 1.04 ×10⁻⁶ cm/s | Papp B→A at 120 min, 1 μM (BCRP; 1 μM): 41.4 ± 4.35 ×10⁻⁶ cm/s | Papp A→B at 120 min, 10 μM (BCRP; 10 μM): 0.59 ± 0.33 ×10⁻⁶ cm/s | Papp B→A at 120 min, 10 μM (BCRP; 10 μM): 44.1 ± 2.65 ×10⁻⁶ cm/s | Papp A→B at 120 min, 100 μM (BCRP; 100 μM): 0.9 ± 0.22 ×10⁻⁶ cm/s | Papp B→A at 120 min, 100 μM (BCRP; 100 μM): 46.8 ± 3.4 ×10⁻⁶ cm/s | Papp A→B at 120 min, 1 μM (MDR1 (P-gp)): 1.7 ± 0.69 ×10⁻⁶ cm/s | Papp B→A at 120 min, 1 μM (MDR1 (P-gp)): 46.5 ± 5.14 ×10⁻⁶ cm/s | Papp B→A at 120 min, 10 μM (MDR1 (P-gp); 10 μM): 45 ± 6.41 ×10⁻⁶ cm/s | Papp A→B at 120 min, 100 μM (MDR1 (P-gp)): 0.7 ± 0.05 ×10⁻⁶ cm/s | Papp B→A at 120 min, 100 μM (MDR1 (P-gp)): 57.5 ± 4.71 ×10⁻⁶ cm/s | Net ER (human MDR1; 1 μM): 22.84 ± 2.65 | Net ER (human MDR1; 10 μM): 82.56 ± 6.13 | Net ER (human MDR1; 100 μM): 80.02 ± 5.98 | P-gp substrate (P-gp): substrates of P-gp
